Values quoted from earlier work as cited in patent US6521608B1, “Vitamin D and its analogs in the treatment of tumors and other hyperproliferative disorders” (Oregon Health & Science University, priority 1998, dated 2003).
Values joined by “and” are separate entries in the source; they are usually repeats but may differ in a detail not shown here. Equal entries are not always repeated.

Experiments:
VDR (rat intestine) = target: T1, VDR (rat intestine) (Rattus norvegicus, UniProt P13053); conditions: cited from earlier work
T1 construct: SPC indicates the species of origin of the nVDR where c=chick intestine, r=rat intestine; from tissue; host or cells: rat intestine
T1 sequence (P13053 1-423): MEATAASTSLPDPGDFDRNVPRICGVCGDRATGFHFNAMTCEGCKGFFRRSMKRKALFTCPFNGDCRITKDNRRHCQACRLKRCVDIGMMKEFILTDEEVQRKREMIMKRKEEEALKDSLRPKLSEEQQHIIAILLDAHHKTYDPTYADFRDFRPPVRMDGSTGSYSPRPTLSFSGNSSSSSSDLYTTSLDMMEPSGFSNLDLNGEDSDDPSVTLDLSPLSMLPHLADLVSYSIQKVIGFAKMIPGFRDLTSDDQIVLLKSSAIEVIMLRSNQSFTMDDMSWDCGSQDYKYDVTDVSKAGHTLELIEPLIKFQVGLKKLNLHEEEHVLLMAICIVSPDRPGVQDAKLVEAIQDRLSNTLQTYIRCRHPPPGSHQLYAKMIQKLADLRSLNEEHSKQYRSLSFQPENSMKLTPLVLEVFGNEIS

VDR (chick intestine) = target: T2, VDR (chick intestine) (Gallus gallus, UniProt O42392); conditions: cited from earlier work
T2 construct: SPC indicates the species of origin of the nVDR where c=chick intestine, r=rat intestine; from tissue; host or cells: chick intestine
T2 sequence (O42392 1-451): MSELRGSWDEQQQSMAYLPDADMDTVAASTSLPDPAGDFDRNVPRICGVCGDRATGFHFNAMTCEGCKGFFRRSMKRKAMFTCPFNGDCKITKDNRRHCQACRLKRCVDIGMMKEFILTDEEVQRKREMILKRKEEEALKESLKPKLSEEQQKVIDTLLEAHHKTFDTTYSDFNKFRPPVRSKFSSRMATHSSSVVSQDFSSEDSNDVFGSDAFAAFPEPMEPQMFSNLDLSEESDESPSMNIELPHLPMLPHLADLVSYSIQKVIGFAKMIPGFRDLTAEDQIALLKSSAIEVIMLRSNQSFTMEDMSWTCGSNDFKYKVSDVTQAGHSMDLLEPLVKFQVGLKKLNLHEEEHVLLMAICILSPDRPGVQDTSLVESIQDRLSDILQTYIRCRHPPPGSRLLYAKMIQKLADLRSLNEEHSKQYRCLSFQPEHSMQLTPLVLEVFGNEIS

[1] = relative to calcitriol = 1; cited from earlier work
[2] = target: T3, VDR (rat osteosarcoma ROS 17/2.8 cells) (Rattus norvegicus, UniProt P13053); conditions: cited from earlier work
T3 construct: m=MCF-7 human breast cancer cells, z=rat osteosarcoma ROS 17/2.8 cells; endogenous in cells; host or cells: ROS 17/2.8 rat osteosarcoma cells
T3 sequence (P13053 1-423): T1 sequence (P13053 1-423)

[3] = target: T4, VDR (MCF-7 human breast cancer cells) (Homo sapiens, UniProt P11473); conditions: MCF-7 cells; cited from earlier work
T4 construct: m=MCF-7 human breast cancer cells, z=rat osteosarcoma ROS 17/2.8 cells; endogenous in cells; host or cells: MCF-7 human breast cancer cells
T4 sequence (P11473 1-427): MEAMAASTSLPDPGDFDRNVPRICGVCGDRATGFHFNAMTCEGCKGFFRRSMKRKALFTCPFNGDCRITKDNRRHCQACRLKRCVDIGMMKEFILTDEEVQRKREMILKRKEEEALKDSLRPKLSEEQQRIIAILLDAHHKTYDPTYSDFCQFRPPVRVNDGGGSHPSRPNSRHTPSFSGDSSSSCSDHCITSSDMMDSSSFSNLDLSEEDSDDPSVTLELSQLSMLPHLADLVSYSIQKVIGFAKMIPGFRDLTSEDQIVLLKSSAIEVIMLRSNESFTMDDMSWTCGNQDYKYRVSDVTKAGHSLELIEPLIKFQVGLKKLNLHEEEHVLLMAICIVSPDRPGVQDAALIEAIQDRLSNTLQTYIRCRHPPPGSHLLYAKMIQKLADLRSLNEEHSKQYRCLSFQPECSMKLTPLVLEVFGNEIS

VDR (U-937 cells) = target: T5, VDR (U-937 cells) (Homo sapiens, UniProt P11473); conditions: cited from earlier work
T5 construct: obtained in human transformed cell lines where h=HL-60 cells, u=U-937; endogenous in cells; host or cells: U-937
T5 sequence (P11473 1-427): T4 sequence (P11473 1-427)

[4] = test system: locally advanced or cutaneous metastatic breast cancer; conditions: topical, cited from earlier work

| Compound | Relative Competitive index for VDR (Calcitriol = 100) (VDR (rat intestine)) | Relative Competitive index for VDR (Calcitriol = 100) (VDR (chick intestine)) | calcemic index (CI) [1] | also measured |
| --- | --- | --- | --- | --- |
| 25-(OH)2-16-ene-23-yne-D3 | 0.07 (rat intestine) | 0.4 (chick) and <0.4 (chick) |  |  |
| C=C1/C(=C\C=C2/CCC[C@]3(C)C([C@H](C)CC#CC(C)(C)O)=CC[C@@H]23)C[C@@H](O)C[C@@H]1O [1,25-(OH)2-16-Ene-23-yne-D3, 1,25-(OH)2-16-ene-23-yne-D3] | 50 (rat intestine) | 68 (chick) and 70 (chick) and 90 (chick) and 80 (chick) |  |  |
| C=C1/C(=C\C=C2/CCC[C@]3(C)C([C@H](C)CCCC(C)(C)O)=CC[C@@H]23)C[C@@H](O)C[C@@H]1O [1,25-(OH)2-16-Ene-D3, 1,25-(OH)2-16-ene-D3] | 240 (rat intestine) and 250 (rat intestine) | 165 (chick) |  |  |
| C=C1/C(=C\C=C2/CCC[C@]3(C)[C@@H]([C@H](C)CCCC(C)C)CC[C@@H]23)C[C@@H](O)C[C@@H]1O [1alpha-(OH)-D3, 1α-hydroxyvitamin D3] |  | 0.17 (chick) |  |  |
| C=C1C(=CC=C2CC(CF)CC3(C)C2CCC3C(C)CCCC(C)(C)O)CC(O)CC1O (stereo not drawn) [11α-fluoromethyl-1α,25-(OH)2-D3] |  |  | about 0.1 |  |
| C=C1/C(=C\C=C2/CCC[C@]3(C)[C@@H]([C@H](C)OCCC(C)(C)O)CC[C@@H]23)C[C@@H](O)C[C@@H]1O [22-Oxacalcitriol, 22-oxa-1α,25-(OH)2-D3] |  |  | CI < 0.001 | Relative Competitive index for VDR (Calcitriol = 100) [2]: 100 (rat osteosarcoma); Relative Competitive index for VDR (Calcitriol = 100) [3]: 100 (MCF-7 cells) |
| C=C1/C(=C\C=C2/CCC[C@]3(C)[C@@H]([C@H](C)/C=C/C=C/C(O)(CC)CC)CC[C@@H]23)C[C@@H](O)C[C@@H]1O [EB 1089, 24a,26a,27a-trihomo-22,24-diene-1α, 25-(OH)2-D3] |  | 17 (chick) |  |  |
| C=C1/C(=C\C=C2/CCC[C@]3(C)[C@@H]([C@@H](C)OCCCC(O)(CC)CC)CC[C@@H]23)C[C@@H](O)C[C@@H]1O [KH 1060, 20-epi-22-oxa-24a,26a,27a-trihomo-1α,25-(OH)2-D3] |  |  | CI = 1.3 |  |
| C=C1/C(=C\C=C2/CCC[C@]3(C)[C@@H]([C@H](C)/C=C/[C@@H](O)C4CC4)CC[C@@H]23)C[C@@H](O)C[C@@H]1O [MC 903, 1[…]24S-(OH)2-22-Ene-26,27-dehydro-D3] |  | 111 (chick) and 76 (chick) and 100 (chick) | CI < 0.01 | Relative Competitive index for VDR (Calcitriol = 100) (VDR (U-937 cells)): 240 (U-937 cells); patients with a 50% reduction in the bidirectional diameter of the treated lesions ([4]; patients who completed 6 weeks of treatment): Three of the 14; hypercalcemia [4]: hypercalcemia was a complication of the treatment |
| C=C1/C(=C\C=C2/CCC[C@]3(C)[C@@H]([C@H](C)CCCC(C)(C)O)CC[C@@H]23)C[C@@H](O)C[C@@H]1O [MC 1288, 1,25(OH2-20-epi-D3] |  | 147 (chick) and 120 (chick) |  |  |
